According to patent publication US20190381198A1, “RA[…]-GAL[…] FOR PET IMAGING OF SENESCENCE” (Eberhard Karls Universitaet Tuebingen Medizinische Fakultaet, priority 2017, published 2019):

Assays:
beta-galactosidase = conditions: 30° C., 30 minutes, citrate buffer pH 5.5
Method: To assess whether tracer 9 is a substrate of beta-galactosidase, it is incubated at 30° C. for 30 minutes in citrate buffer of pH 5.5 containing commercially available betagalactosidase (Sigma). The reaction is stopped by adding 2 volume equivalents of acetonitrile, followed by 5 minutes of centrifugation. The supernatant is examined directly using radio-HPLC. […] The expected radioactive metabolite is compared with the authentic non-radioactive standard (FIG. 2). […] Compound 11 is galactose.

[1] = system: HRas driven liver progenitor cell line; assay: in vitro tracer uptake in senescent vs control HRas driven liver progenitor cells (gamma counter); type: cell-based; conditions: 3.7-7.4 MBq of tracer, 50 minutes
Method: (§1) As the second model, transgenic liver progenitor cell line (Hras) was used for subcutaneous allografts in nude mice. The cell line expresses Hras^G12v and p53shRNA under doxycycline (doxy) conditions. After the removal of doxycycline, the p53 mRNA can be restored and translated to p53 protein. The high amount of p53 triggers senescence. The animals bearing Hras tumors received doxy-water (0.2 mg/ml) for tumor development and 14 days, after removal of doxy-water, the PET/MRT scans are performed with compound 9.
(§2) HCT116 (FIG. 4a) and Hras cells (FIG. 4b) are treated with […] of tracer and incubated for 50 minutes. The cells are measured in a gamma-counter, with the activity normalized to the number of cells used.
(§3) The PET-tracer is tested in two different models in vitro. In HCT116 cells senescence is induced by overnight incubation with doxorubicin, followed by 4 days of culture under normal conditions. Senescence in a HRas driven liver progenitor cell line with a doxycycline regulatable p53-specific shRNA. After induction of senescence, both cell lines are incubated with 3.7-7.4 MBq of tracer for 50 minutes. The cells are then washed, counted and measured in a gamma counter. The activity taken up by the cells is analyzed and normalized to a million cells.

HCT116 cells = assay: in vitro tracer uptake in senescent vs control HCT116 cells (gamma counter); type: cell-based; conditions: 3.7-7.4 MBq of tracer, 50 minutes
Method: as §2, §3

HCT116 tumors = assay: in vivo PET tracer uptake in s.c. HCT116 xenograft tumors, doxorubicin-induced senescence; parameters: species or system nude mice; conditions: for TMR (tumor-to-muscle ratio) / in vivo tracer uptake: PET; for in vivo tracer uptake: i.v.
Method: A xenograft model of colorectal cancer cell line (HCT116) with therapy induced senescence, doxorubicin is used as a chemotherapeutic. Senescence is induced in HCT116 xenograft tumors by intravenous (i.v.) administration of doxorubicin (10 mg/kg). Through tail vain of the mice, 5 days later dynamic PET/MRT scans (1 h) with compound 9 are performed.
(§4) In vivo tests are performed in nude mice bearing s.c. HCT116 or HRas driven liver progenitor cells. Mice bearing HCT116 tumors are treated with doxorubicin (10 mg/Kg bodyweight) and imaged 4 days after the onset of senescence. Mice bearing Hras driven tumor are supplied with doxycycline in their drinking water, which has been later removed to induce senescence. After induction of senescence, the tracer is administered i.v. and PET scans are performed. The %ID/cc and tumor-to-muscle ratios are determined through quantitative analysis of the PET data, permitting evaluation of the tracers. In vitro senescent HCT116 cells show an uptake of 11 kBq/1 mio cells, while the uptake in non-senescent control cells is only 4 kBq/1 mio cells.
The in vivo tracer uptake in senescent and non-senescent HCT116 tumors (FIG. 5) is 1.7+/−0.7 (n=7) vs 1.1+/−0.4 (n=5) %ID/cc respectively; the respective TMR values are 1.7 and 1.1. […] Both %ID/cc and TMR are higher in senescent vs control tumors. The excised tumors are subjected to ex vivo analyses.

[2] = stability of tracer 9 in mouse serum (radio-HPLC); type: in vitro ADME; conditions: 37° C., 1 hour
Method: The tracer 9 is incubated at 37° C. in mouse serum to assess its stability. After 1 hour, 2 volume equivalents of acetonitrile are added and the mixture is centrifuged for 5 minutes. The supernatant is examined directly using radio-HPLC. Serum stability of tracer 9 after 1 h (FIG. 3a) vs tracer 9 (FIG. 3b) is derivable from FIG. 3.

Hras tumors = assay: in vivo PET tracer uptake in s.c. HRas driven tumors, senescence by doxycycline removal; parameters: species or system nude mice; conditions: for TMR (tumor-to-muscle ratio) / tracer uptake: PET; for tracer uptake: i.v.
Method: as §1, §4
Both %ID/cc and TMR are higher in senescent vs control tumors. The excised tumors are subjected to ex vivo analyses. […] Senescent tumor slices also show higher X-Gal staining than control sections. The nonsenescent tumor expresses GFP, which can be visualized with optical imaging.

For `OC[C@H]1O[C@@H](Oc2cccnc2[18F])[C@H](O)[C@@H](O)[C@H]1O` [tracer 9], the “conversion by beta-galactosidase (radioactive metabolite by radio-HPLC)” value (beta-galactosidase) was “produces the radioactive metabolite with the same retention time as the non-radioactive 2-fluoropyridinol”, the “uptake in senescent cells compared to controls” value ([1]; Hras cells, activity normalized to number of cells) was “significantly higher uptake compared to the controls” and the uptake ([1]; non-senescent HRas driven liver progenitor cells) was 63 kBq/1 mio cells. The uptake ([1]; senescent HRas driven liver progenitor cells) was 192 kBq/1 mio cells, the “uptake in senescent cells compared to controls” value (HCT116 cells; HCT116 cells, activity normalized to number of cells) was “significantly higher uptake compared to the controls” and the uptake (HCT116 cells; non-senescent control HCT116 cells) was 4 kBq/1 mio cells. For the same compound, the uptake (HCT116 cells; senescent HCT116 cells) was 11 kBq/1 mio cells, the “autoradiography of excised tumors, ex vivo” value (HCT116 tumors; HCT116 tumor sections, senescent vs control) was “higher tracer uptake in the senescent tumor section vs control” and the “TMR (tumor-to-muscle ratio)” value (HCT116 tumors; non-senescent HCT116 tumors) was 1.1. The “in vivo tracer uptake” value (HCT116 tumors; non-senescent HCT116 tumors, n=5) was 1.1+/−0.4 %ID/cc, the “TMR (tumor-to-muscle ratio)” value (HCT116 tumors; senescent HCT116 tumors) was 1.7 and the “in vivo tracer uptake” value (HCT116 tumors; senescent HCT116 tumors, n=7) was 1.7+/−0.7 %ID/cc. For the same compound, the serum stability [2] was “integrity remains largely intact”, the “autoradiography of excised tumors, ex vivo” value (Hras tumors; HRas tumor sections, senescent vs control) was “higher tracer uptake in the senescent tumor section vs control” and the “TMR (tumor-to-muscle ratio)” value (Hras tumors; control HRas tumors) was 1.2. The tracer uptake (Hras tumors; control HRas tumors, n=11) was 0.9+/−0.3 %ID/cc, the “TMR (tumor-to-muscle ratio)” value (Hras tumors; senescent HRas tumors) was 2.1 and the tracer uptake (Hras tumors; senescent HRas tumors, n=16) was 1.5+/−0.3 %ID/cc.
